According to US20180206498A1, “SUBSTITUTED HETEROARYL CARBOXYLIC ACID HYDRAZIDES OR SALTS THEREOF AND USE THEREOF TO INCREASE STRESS TOLERANCE IN PLANTS” (Bayer CropScience Aktiengesellschaft, priority 2015, published 2018):

The molecules below were run on Triticum aestivum (assay: Drought stress in vivo analysis Part B, appearance vs stressed control plants in categories). Settings: spray 25 g/ha.
Design: key: 0: no positive effect; +: slight positive effect; ++: clear positive effect; +++: strong positive effect
Procedure: (§1) Seeds of monocotyledonous and dicotyledonous crop plants were sown in sandy loam in plastic pots, covered with soil or sand and cultivated in a greenhouse under good growth conditions. The test plants are treated at the early leaf stage (BBCH10-BBCH13). To assure uniform water supply before commencement of stress, the potted plants were supplied with water by dam irrigation prior to substance application. The inventive compounds were first formulated as wettable powders (WP) or dissolved in a solvent mixture. The further dilution was effected with water supplemented with 0.2% wetting agent (e.g. agrotin). The finished spray liquor was sprayed onto the green parts of the plant at an equivalent water application rate of 600 I/ha. Substance application was followed immediately by stress treatment of the plants. Drought Stress was Induced by Gradual Drying Out Under the Following Conditions: “Day”: 14 hours with illumination at […]-30° C. “Night”: 10 hours without illumination at 18-20° C. The duration of the respective stress phases was guided mainly by the condition of the stressed control plants. It was ended (by re-irrigating and transfer to a greenhouse with good growth conditions) as soon as irreversible damage was observed on the stressed control plants. The end of the stress phase was followed by an about 4-7-day recovery phase, during which the plants were once again kept under good growth conditions in a greenhouse. The duration of the recovery phase was guided mainly by when the trial plants had attained a state which enabled visual scoring of potential effects, and was therefore variable. Once this juncture had been reached, the appearance of the plants treated with test substances was recorded in comparison to the stressed control plants by the following categories: [table] In order to rule out any influence on the effects observed by any fungicidal or insecticidal action of the test compounds, it was additionally ensured that the tests proceeded without fungal infection or insect infestation. The values reported in tables B-1 and […] below are mean values of the results from at least three repeats. Effects of selected compounds of the general formula (I) under drought stress according to the following tables B-1 and B-2: BRSNS=Brassica napus ZEAMX=Zea mays TRZAS=Triticum aestivum
In the case of CN(C)N(Cc1cccc(Cl)c1Cl)C(=O)c1cn(C)nc1C(F)(F)F [Compound A4-4, N-(2,3-dichlorobenzyl)-N′,N′, 1-trimethyl-3-(trifluoromethyl)-1H-pyrazole-4-carbohydrazide], the “Effect (TRZAS)” value is reported as “+”. CN(C)N(Cc1ccccc1C#N)C(=O)c1cn(C)nc1C(F)(F)F [Compound A4-61] was tested, and the “Effect (TRZAS)” value was “+”. For CN(C)N(Cc1ccccc1Cl)C(=O)c1cn(C)nc1C(F)F [Compound A8-1], the “Effect (TRZAS)” value was “+”. With CN(C(=O)OC(C)(C)C)N(Cc1ccc(Cl)cc1Cl)C(=O)c1c(C(F)F)nn(C)c1F [Compound A13-5] the “Effect (TRZAS)” value was “+”. With CN(C(=O)OC(C)(C)C)N(Cc1ccccc1Cl)C(=O)c1c(C(F)F)nn(C)c1Cl [Compound A14-1] the “Effect (TRZAS)” value was “+”. For CN(C(=O)OC(C)(C)C)N(CCc1ccc(Cl)cc1Cl)C(=O)c1c(C(F)F)nn(C)c1Cl [Compound A14-615], the “Effect (TRZAS)” value was “+”. For Cn1nc(C(F)F)c(C(=O)N(Cc2ccccc2C#N)N2CCCC2)c1Cl [Compound A18-61], the “Effect (TRZAS)” value was “+”. CN(C)N(Cc1ccccn1)C(=O)c1ccsc1C(F)F [Compound B3-21] was tested, and the “Effect (TRZAS)” value was “+”. For CCc1sccc1C(=O)N(Cc1ccccc1Cl)N(C)C [Compound B4-1], the “Effect (TRZAS)” value was “+”. For CCc1sccc1C(=O)N(Cc1ccccn1)N(C)C [Compound B4-21], the “Effect (TRZAS)” value was “+”. CCc1sccc1C(=O)N(Cc1ccccc1C#N)N(C)C [Compound B4-61] was tested, and the “Effect (TRZAS)” value was “+”. In the case of Cc1nc(-c2cccnc2)sc1C(=O)N(Cc1ccccc1C#N)N(C)C [Compound D1-61], the “Effect (TRZAS)” value is reported as “+”. With Cc1nc(-c2cccnc2)sc1C(=O)N(Cc1ccccc1C#N)N1CCCC1 [Compound D2-61] the “Effect (TRZAS)” value was “+”. With CN(C)N(Cc1ccc(Cl)nc1)C(=O)c1snc(Cl)c1Cl [Compound E1-94] the “Effect (TRZAS)” value was “+”. For CC(Cc1ccccc1)N(C(=O)c1snc(Cl)c1Cl)N(C)C (stereo not drawn) [Compound E1-351], the “Effect (TRZAS)” value was “+”. For N#Cc1ccccc1CN(C(=O)c1snc(Cl)c1Cl)N1CCCC1 [Compound E5-61], the “Effect (TRZAS)” value was “+”. For CC(C)c1nnsc1C(=O)N(Cc1ccc(Cl)nc1)N(C)C [Compound F2-94], the “Effect (TRZAS)” value was “+”. With CN(C)N(Cc1ccccc1Cl)C(=O)c1snc(N)c1Cl [Compound G1-1] the “Effect (TRZAS)” value was “+”. With CN(C)N(Cc1ccccn1)C(=O)c1cc(OCc2ccccc2)ns1 [Compound G10-21] the “Effect (TRZAS)” value was “+”. O=C(c1cnsn1)N(Cc1ccc(F)cc1F)N1CCCC1 [Compound H2-15] was tested, and the “Effect (TRZAS)” value was “++”.

Same assay, conditions: spray 250 g/ha
CCn1nc(C(F)F)c(C(=O)N(Cc2ccccc2C#N)N(C)C)c1F [Compound A7-61] was tested, and the “Effect (TRZAS)” value was “++”. With Cn1cc(C(=O)N(Cc2ccccc2C#N)N2CCCC2)c(C(F)F)n1 [Compound A20-61] the “Effect (TRZAS)” value was “+”. With CCn1nc(C(F)F)c(C(=O)N(Cc2cccnc2C#N)N2CCCC2)c1F [Compound A24-679] the “Effect (TRZAS)” value was “+”. With CN(C)N(Cc1ccccc1C#N)C(=O)c1ccsc1C(F)F [Compound B3-61, N-(2-Cyanobenzyl)-2-(difluoromethyl)-N′,N′-dimethylthiophene-3-carbohydrazide] the “Effect (TRZAS)” value was “+”. Cc1occc1C(=O)N(Cc1ccccc1C#N)N(C)C [Compound C3-61] was tested, and the “Effect (TRZAS)” value was “+”. In the case of Cc1nc(-c2cccnc2)sc1C(=O)N(Cc1cccc(Cl)c1Cl)N(C)C [Compound D1-4], the “Effect (TRZAS)” value is reported as “+”. In the case of CN(C)N(Cc1ccccn1)C(=O)c1sc(Cl)nc1Cl [Compound D6-21], the “Effect (TRZAS)” value is reported as “+”. In the case of CN(C)N(Cc1ncc(C(F)(F)F)cc1Cl)C(=O)c1sc(Cl)nc1Cl [Compound D6-36], the “Effect (TRZAS)” value is reported as “+”. For CN(C)N(Cc1ccc(Cl)nc1)C(=O)c1sc(Cl)nc1Cl [Compound D6-94], the “Effect (TRZAS)” value was “+”. For CN(C)N(Cc1ccccc1Cl)C(=O)c1snc(Cl)c1Cl [Compound E1-1], the “Effect (TRZAS)” value was “+”. CN(C)N(Cc1ccc(Cl)cc1)C(=O)c1snc(Cl)c1Cl [Compound E1-3] was tested, and the “Effect (TRZAS)” value was “+”. In the case of CN(C)N(Cc1ccccc1C#N)C(=O)c1snc(Cl)c1Cl [Compound E1-61], the “Effect (TRZAS)” value is reported as “+”. In the case of Cc1nnsc1C(=O)N(Cc1ccccc1C#N)N(C)C [Compound F1-61], the “Effect (TRZAS)” value is reported as “+”. In the case of CC(C)c1nnsc1C(=O)N(Cc1ccccc1Cl)N(C)C [Compound F2-1, N-(2-Chlorobenzyl)-4-isopropyl-N′,N′-dimethyl-1,2,3-thiadiazole-5-carbohydrazide], the “Effect (TRZAS)” value is reported as “+”. For CN(C)N(Cc1ncc(C(F)(F)F)cc1Cl)C(=O)c1ccns1 [Compound G8-36], the “Effect (TRZAS)” value was “++”. O=C(c1ccns1)N(Cc1ccc(F)cc1F)N1CCCC1 [Compound G9-15] was tested, and the “Effect (TRZAS)” value was “+”. For O=C(c1ccns1)N(Cc1ccc(Cl)nc1)N1CCCC1 [Compound G9-94], the “Effect (TRZAS)” value was “++”. In the case of CN(C)N(Cc1ccccc1F)C(=O)c1cc(OCc2ccccc2)ns1 [Compound G10-11], the “Effect (TRZAS)” value is reported as “+”. For CN(C)N(Cc1ncc(C(F)(F)F)cc1Cl)C(=O)c1cc(OCc2ccccc2)ns1 [Compound G10-36], the “Effect (TRZAS)” value was “++”. For CN(C)N(Cc1ccccc1C#N)C(=O)c1cc(OCc2ccccc2)ns1 [Compound G10-61], the “Effect (TRZAS)” value was “+”. Cc1c(OCc2ccccc2)nsc1C(=O)N(Cc1ncc(C(F)(F)F)cc1Cl)N(C)C [Compound G11-36] was tested, and the “Effect (TRZAS)” value was “++”. In the case of O=C(c1cnsn1)N(Cc1ccccc1Cl)N1CCCC1 [Compound H2-1], the “Effect (TRZAS)” value is reported as “+”. In the case of O=C(c1cnsn1)N(Cc1ccc(Cl)cc1)N1CCCC1 [Compound H2-3], the “Effect (TRZAS)” value is reported as “+”. For N#Cc1ccccc1CN(C(=O)c1cnsn1)N1CCCC1 [Compound H2-61], the “Effect (TRZAS)” value was “+”.

The molecules below were run on Brassica napus in the same assay as above. Settings: spray 25 g/ha.
Design: key: 0: no positive effect; +: slight positive effect; ++: clear positive effect; +++: strong positive effect
Procedure: as §1
In the case of Cc1nc(-c2cccnc2)sc1C(=O)N(Cc1ccccn1)N1CCCC1 [Compound D2-21], the “Effect (BRSNS)” value is reported as “+”. CN(C)N(Cc1ccccc1Cl)C(=O)c1sc(Cl)nc1Cl [Compound D6-1] was tested, and the “Effect (BRSNS)” value was “+”.

Same assay, conditions: spray 250 g/ha
For CN(C(=O)OC(C)(C)C)N(Cc1ccccc1Cl)C(=O)c1c(C(F)F)nn(C)c1F [Compound A13-1], the “Effect (BRSNS)” value was “++”. In the case of Cn1cc(C(=O)N(Cc2ccccc2Cl)N2CCCC2)c(C(F)F)n1 [Compound A20-1], the “Effect (BRSNS)” value is reported as “+”. In the case of CN(C)N(Cc1nccc(Cl)c1Cl)C(=O)c1ccsc1C(F)F [Compound B3-40], the “Effect (BRSNS)” value is reported as “+”. For CN(C)N(Cc1cccc(Cl)c1Cl)C(=O)c1snc(Cl)c1Cl [Compound E1-4], the “Effect (BRSNS)” value was “+”. CCN(CC)N(Cc1ccccc1C#N)C(=O)c1snc(Cl)c1Cl [Compound E2-61] was tested, and the “Effect (BRSNS)” value was “+”. Cc1nnsc1C(=O)N(Cc1ccc(Cl)nc1)N(C)C [Compound F1-94] was tested, and the “Effect (BRSNS)” value was “+”. In the case of CC(C)c1nnsc1C(=O)N(Cc1cccc(Cl)c1Cl)N(C)C [Compound F2-4], the “Effect (BRSNS)” value is reported as “+”. CC(C)c1nnsc1C(=O)N(Cc1nccc(Cl)c1Cl)N(C)C [Compound F2-40] was tested, and the “Effect (BRSNS)” value was “+”.
